Test results as given in publication PMC6858350, “A common mechanism allows selective targeting of GluN2B subunit-containing N-methyl-D-aspartate receptors” (Communications Biology, 2019).
Marks after values point to notes of the source that are not given here. Each block holds one compound with its values, some of them ahead of it.

What was measured:
[1] = molecular target: GluN1-1a/GluN2D NMDAR (Rattus norvegicus, UniProt P35439+Q62645); experiment: cell-based; conditions: read-out: ion current inhibition % ± SEM, GluN2D
[2] = molecular target: T1, GluN1-1a WT/GluN2B I111A (Rattus norvegicus, UniProt P35439+Q00960, I111A); conditions: GluN2B I111A
T1 sequence (Q00960 27-1482 I111A, other chains not shown): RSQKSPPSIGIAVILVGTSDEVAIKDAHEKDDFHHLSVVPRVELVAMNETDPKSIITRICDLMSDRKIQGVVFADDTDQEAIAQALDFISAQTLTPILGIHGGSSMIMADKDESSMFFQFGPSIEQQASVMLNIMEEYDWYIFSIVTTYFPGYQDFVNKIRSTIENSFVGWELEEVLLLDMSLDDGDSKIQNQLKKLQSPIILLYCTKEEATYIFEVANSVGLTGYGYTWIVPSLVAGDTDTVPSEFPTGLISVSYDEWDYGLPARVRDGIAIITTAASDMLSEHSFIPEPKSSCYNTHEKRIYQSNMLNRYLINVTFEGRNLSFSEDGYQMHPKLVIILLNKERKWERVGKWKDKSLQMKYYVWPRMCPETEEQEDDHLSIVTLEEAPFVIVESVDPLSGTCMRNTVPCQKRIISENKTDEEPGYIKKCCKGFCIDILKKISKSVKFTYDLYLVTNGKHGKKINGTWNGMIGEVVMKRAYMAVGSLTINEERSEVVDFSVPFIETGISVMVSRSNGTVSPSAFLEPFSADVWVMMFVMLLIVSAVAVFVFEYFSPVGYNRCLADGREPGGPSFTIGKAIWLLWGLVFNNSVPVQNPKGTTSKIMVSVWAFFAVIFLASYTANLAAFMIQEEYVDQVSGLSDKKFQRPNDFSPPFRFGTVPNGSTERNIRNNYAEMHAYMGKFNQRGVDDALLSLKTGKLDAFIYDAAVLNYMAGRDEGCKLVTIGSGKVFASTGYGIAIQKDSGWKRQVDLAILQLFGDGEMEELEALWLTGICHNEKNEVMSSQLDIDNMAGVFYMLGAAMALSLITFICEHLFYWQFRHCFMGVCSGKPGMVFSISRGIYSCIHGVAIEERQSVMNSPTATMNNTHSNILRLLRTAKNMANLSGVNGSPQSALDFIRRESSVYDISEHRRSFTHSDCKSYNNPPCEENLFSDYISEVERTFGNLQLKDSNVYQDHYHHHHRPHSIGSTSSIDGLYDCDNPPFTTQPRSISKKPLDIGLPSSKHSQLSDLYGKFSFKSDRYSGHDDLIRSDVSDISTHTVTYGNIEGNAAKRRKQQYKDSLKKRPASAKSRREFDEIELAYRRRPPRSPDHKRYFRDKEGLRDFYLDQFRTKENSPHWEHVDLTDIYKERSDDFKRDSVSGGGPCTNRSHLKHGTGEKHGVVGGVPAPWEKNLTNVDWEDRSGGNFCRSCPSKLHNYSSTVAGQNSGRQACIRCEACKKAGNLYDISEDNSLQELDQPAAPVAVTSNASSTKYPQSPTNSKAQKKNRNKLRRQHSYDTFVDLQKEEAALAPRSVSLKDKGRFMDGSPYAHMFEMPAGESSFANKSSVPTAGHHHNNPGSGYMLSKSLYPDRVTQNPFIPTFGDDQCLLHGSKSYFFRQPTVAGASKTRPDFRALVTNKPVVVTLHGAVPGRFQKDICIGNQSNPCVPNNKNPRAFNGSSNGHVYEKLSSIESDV

[3] = molecular target: T2, GluN1-1a WT/GluN2B F176Y (Rattus norvegicus, UniProt P35439+Q00960, F176Y); experiment: cell-based
T2 sequence (Q00960 27-1482 F176Y, other chains not shown): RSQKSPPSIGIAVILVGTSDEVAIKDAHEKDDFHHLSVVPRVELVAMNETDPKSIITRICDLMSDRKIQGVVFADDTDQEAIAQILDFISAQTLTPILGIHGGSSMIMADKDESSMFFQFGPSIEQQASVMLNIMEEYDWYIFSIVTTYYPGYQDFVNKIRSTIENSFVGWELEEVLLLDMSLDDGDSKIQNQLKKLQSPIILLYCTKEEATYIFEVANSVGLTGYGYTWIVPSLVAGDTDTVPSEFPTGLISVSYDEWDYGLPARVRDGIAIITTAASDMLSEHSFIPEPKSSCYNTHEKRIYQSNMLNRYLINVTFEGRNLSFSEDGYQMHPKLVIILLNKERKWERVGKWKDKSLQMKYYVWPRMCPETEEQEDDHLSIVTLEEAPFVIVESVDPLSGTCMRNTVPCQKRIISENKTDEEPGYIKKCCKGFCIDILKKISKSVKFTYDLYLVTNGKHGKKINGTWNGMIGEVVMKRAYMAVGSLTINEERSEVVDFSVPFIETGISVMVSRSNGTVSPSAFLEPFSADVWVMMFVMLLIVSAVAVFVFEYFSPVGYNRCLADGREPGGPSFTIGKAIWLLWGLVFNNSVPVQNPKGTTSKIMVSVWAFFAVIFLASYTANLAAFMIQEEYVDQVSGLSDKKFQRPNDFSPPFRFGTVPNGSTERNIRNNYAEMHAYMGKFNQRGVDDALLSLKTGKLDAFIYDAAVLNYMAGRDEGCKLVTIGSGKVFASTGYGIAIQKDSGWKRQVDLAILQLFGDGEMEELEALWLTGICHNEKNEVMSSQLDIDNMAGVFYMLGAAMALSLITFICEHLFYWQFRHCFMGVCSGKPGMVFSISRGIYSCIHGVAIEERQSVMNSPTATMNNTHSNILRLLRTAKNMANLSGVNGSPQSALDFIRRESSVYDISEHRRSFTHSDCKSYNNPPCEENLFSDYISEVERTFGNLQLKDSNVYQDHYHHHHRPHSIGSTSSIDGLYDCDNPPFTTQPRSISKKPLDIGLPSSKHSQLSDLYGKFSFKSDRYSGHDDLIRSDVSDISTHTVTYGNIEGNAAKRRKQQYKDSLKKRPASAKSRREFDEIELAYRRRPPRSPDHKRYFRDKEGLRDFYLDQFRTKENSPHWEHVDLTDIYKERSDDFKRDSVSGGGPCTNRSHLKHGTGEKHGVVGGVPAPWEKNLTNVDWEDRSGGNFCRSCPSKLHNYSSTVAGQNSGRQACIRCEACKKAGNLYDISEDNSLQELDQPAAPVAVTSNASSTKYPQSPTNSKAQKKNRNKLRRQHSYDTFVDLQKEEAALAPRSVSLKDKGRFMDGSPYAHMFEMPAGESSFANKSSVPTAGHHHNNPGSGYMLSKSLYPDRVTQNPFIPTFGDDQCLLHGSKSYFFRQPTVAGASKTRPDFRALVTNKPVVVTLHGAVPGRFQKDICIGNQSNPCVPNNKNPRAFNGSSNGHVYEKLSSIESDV

[4] = molecular target: T3, GluN1-1a WT/GluN2B F176A (Rattus norvegicus, UniProt P35439+Q00960, F176A); experiment: cell-based
[5] = molecular target: T2, GluN1-1a WT/GluN2B F176Y; conditions: GluN2B F176Y
[6] = molecular target: T4, GluN1-1a L135N/GluN2B WT (Rattus norvegicus, UniProt P35439+Q00960, L135N); conditions: GluN1-1a L135N
[7] = molecular target: GluN1-1a/GluN2B NMDAR (wildtype) (Rattus norvegicus, UniProt P35439+Q00960); type: cell-based; conditions: for IC50 / p (slope of the dose-response curve) / A2 ± SE (maximum inhibition from dose-response curve): TEVC; for IC50: holding potential −70 mV, 10 µM glycine and 10 µM (S)-glutamate, read-out: IC50 ± SE; for p (slope of the dose-response curve) / A2 ± SE (maximum inhibition from dose-response curve): −70 mV; for A2 ± SE (maximum inhibition from dose-response curve): flexible A2
[8] = test system: NMDA receptor-dependent EPSCs in CA1 pyramidal neurons; experiment: whole cell patch-clamp of evoked NMDAR-dependent EPSCs in hippocampal slices; type: cell-based, C57BL/6J mice; conditions: n = 5
[9] = molecular target: T3, GluN1-1a WT/GluN2B F176A; conditions: GluN2B F176A
[10] = molecular target: T5, GluN1-1a Y109S/GluN2B WT (Rattus norvegicus, UniProt P35439+Q00960, Y109S); conditions: GluN1-1a Y109S
[11] = molecular target: T6, GluN1-1a F113S/GluN2B WT (Rattus norvegicus, UniProt P35439+Q00960, F113S); experiment: cell-based
[12] = molecular target: T7, GluN1-1a WT/GluN2B F114A (Rattus norvegicus, UniProt P35439+Q00960, F114A); experiment: cell-based
[13] = molecular target: T4, GluN1-1a L135N/GluN2B WT; experiment: cell-based
[14] = molecular target: T7, GluN1-1a WT/GluN2B F114A; conditions: GluN2B F114A
[15] = molecular target: T8, GluN1-1a WT/GluN2B E236A (Rattus norvegicus, UniProt P35439+Q00960, E236A); experiment: cell-based
T8 sequence (Q00960 27-1482 E236A, other chains not shown): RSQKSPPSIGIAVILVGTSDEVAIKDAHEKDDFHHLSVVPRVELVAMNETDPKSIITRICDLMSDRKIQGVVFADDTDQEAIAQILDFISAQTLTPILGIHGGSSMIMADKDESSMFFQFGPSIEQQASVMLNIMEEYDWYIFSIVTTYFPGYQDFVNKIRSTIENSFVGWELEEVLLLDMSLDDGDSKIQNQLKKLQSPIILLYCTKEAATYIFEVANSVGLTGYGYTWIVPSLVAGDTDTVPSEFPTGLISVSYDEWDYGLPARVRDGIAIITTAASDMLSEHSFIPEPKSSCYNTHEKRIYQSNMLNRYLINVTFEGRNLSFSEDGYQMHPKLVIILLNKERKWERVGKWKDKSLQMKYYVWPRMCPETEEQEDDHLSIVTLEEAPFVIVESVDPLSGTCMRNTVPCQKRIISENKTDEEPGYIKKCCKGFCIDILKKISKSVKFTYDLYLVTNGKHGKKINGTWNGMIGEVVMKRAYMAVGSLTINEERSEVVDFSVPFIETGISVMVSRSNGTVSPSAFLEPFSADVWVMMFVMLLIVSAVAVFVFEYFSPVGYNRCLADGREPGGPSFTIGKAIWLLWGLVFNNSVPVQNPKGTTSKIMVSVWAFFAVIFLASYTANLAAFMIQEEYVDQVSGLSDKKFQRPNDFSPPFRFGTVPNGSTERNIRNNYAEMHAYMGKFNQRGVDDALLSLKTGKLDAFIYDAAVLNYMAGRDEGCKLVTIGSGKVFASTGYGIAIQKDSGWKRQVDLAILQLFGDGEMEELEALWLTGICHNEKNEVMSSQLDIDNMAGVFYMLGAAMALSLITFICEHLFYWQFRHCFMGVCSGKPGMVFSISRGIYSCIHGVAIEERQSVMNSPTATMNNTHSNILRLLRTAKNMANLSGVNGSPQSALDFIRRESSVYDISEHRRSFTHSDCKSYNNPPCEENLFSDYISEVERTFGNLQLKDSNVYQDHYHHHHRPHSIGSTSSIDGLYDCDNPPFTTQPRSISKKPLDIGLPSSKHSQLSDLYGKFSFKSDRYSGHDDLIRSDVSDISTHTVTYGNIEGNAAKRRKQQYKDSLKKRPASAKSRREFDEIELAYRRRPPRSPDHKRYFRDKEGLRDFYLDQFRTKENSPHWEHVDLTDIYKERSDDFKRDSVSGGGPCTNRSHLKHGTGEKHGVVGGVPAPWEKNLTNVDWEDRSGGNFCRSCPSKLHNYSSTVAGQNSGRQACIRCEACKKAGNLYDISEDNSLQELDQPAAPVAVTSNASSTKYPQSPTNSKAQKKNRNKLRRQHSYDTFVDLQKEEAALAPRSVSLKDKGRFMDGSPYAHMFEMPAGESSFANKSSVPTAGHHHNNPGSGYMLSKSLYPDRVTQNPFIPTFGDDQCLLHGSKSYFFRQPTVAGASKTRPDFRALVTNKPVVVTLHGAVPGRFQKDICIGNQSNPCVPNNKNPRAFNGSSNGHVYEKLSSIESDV

[16] = molecular target: T9, GluN1-1a WT/GluN2B Q110A (Rattus norvegicus, UniProt P35439+Q00960, Q110A); experiment: cell-based
[17] = molecular target: T8, GluN1-1a WT/GluN2B E236A; conditions: GluN2B E236A
[18] = molecular target: GluN1-1a/GluN2C NMDAR (Rattus norvegicus, UniProt P35439+Q00961); experiment: cell-based; conditions: read-out: ion current inhibition % ± SEM, GluN2C
[19] = molecular target: T6, GluN1-1a F113S/GluN2B WT; conditions: GluN1-1a F113S
[20] = molecular target: GluN1-1a/GluN2A NMDAR (Rattus norvegicus, UniProt P35439+Q00959); experiment: cell-based; conditions: read-out: ion current inhibition % ± SEM, GluN2A
[21] = molecular target: T10, GluN1-1a S132A/GluN2B WT (Rattus norvegicus, UniProt P35439+Q00960, S132A); experiment: cell-based
[22] = molecular target: T5, GluN1-1a Y109S/GluN2B WT; experiment: cell-based
[23] = molecular target: T10, GluN1-1a S132A/GluN2B WT; conditions: GluN1-1a S132A, flexible A2
[24] = molecular target: T1, GluN1-1a WT/GluN2B I111A; experiment: cell-based
[25] = molecular target: T9, GluN1-1a WT/GluN2B Q110A; conditions: GluN2B Q110A
[26] = maximum inhibition fixed to wildtype value

Structure (SMILES): Oc1ccc2c(c1)CCN(CCCCc1ccccc1)C[C@@H]2O [compound (R)-1]
inhibition at 10 µM [1]: 18 ± 3%
p (slope) [2]: 0.92
A2 ± SE ([2]; flexible A2): 66 ± 3%
IC50 [3]: 107 ± 20 nM
IC50 [4]: 105 ± 41 µM
p (slope) [5]: 0.82
A2, fixed-to-wildtype (*) [5, 26]: 93%
p (slope) [6]: 0.66
A2 ± SE ([6]; flexible A2): 72 ± 3%
IC50 ([7]; wildtype): 53 ± 3 nM
p (slope of the dose-response curve) ([7]; wildtype): 1.11
A2 ± SE (maximum inhibition from dose-response curve) ([7]; wildtype): 93 ± 1%
inhibition at 10 µM ([7]; read-out: ion current inhibition % ± SEM, GluN2B): 95 ± 1%
EPSC amplitude, % of the initial baseline (SEM) ([8]; 2 µM compound): 60.2 ± 2.8%
EPSC amplitude, % of the initial baseline (SEM) ([8]; 7 µM compound): 13.8 ± 1.4%
EPSC amplitude after washout, % of the initial baseline (SEM) ([8]; washout of compound): 30.9 ± 3.6%
p (slope) [9]: 0.40
A2, fixed-to-wildtype (*) [9, 26]: 93%
p (slope) [10]: 1.42
A2 ± SE ([10]; flexible A2): 92 ± 2%
IC50 [11]: 117 ± 48 nM
IC50 [12]: 4.08 ± 0.423 µM
IC50 [13]: 293 ± 74 nM
p (slope) [14]: 1.35
A2, fixed-to-wildtype (*) [14, 26]: 93%
IC50 [15]: 194 ± 30 nM
IC50 [16]: 393 ± 24 nM
p (slope) [17]: 1.32
A2 ± SE ([17]; flexible A2): 85 ± 1%
inhibition at 10 µM [18]: 8 ± 1%
p (slope) [19]: 0.50
A2 ± SE ([19]; flexible A2): 77 ± 5%
inhibition at 10 µM [20]: 4 ± 1%
IC50 [21]: 106 ± 14 nM
IC50 [22]: 20 ± 2 nM
A2 ± SE [23]: 92 ± 2%
IC50 [24]: 137 ± 31 nM
p (slope) [25]: 2.18
A2 ± SE ([25]; flexible A2): 91 ± 1%

IC50 ([7]; wildtype): 7210 ± 1770 nM
p (slope of the dose-response curve) ([7]; wildtype): 0.62
A2 (maximum inhibition), set as identical with rac-1 ([7]; due to non-saturating inhibition A2 was fixed, not fitted): 93^d %
Structure (SMILES): Oc1ccc2c(c1)CCN([C@H]1CC[C@@H](c3ccccc3)CC1)CC2O (stereo partly drawn) [compound 7]

Inhibition (% ± SEM) of ion flux ([7]; compound concentration 30 µM, wildtype): almost inactive
inhibition at 30 µM ([7]; compound concentration 30 µM, wildtype, read-out: Inhibition (% ± SEM) of ion flux): 9 ± 2%
Structure (SMILES): c1ccc(CCCCN2CCc3ccccc3CC2)cc1 [compound 5]

Structure (SMILES): COc1ccc2c(c1)CCN(CCCCc1ccccc1)CC2O (stereo not drawn) [compound 4]
IC50 ([7]; wildtype): 1300 ± 483 nM
p (slope of the dose-response curve) ([7]; wildtype): 0.70
A2 ± SE (maximum inhibition from dose-response curve) ([7]; wildtype): 100 ± 9%
IC50 shift compared to rac-1 ([7]; wildtype GluN1-1a/GluN2B, IC50 increase relative to rac-1): 14 fold
